ChEMBL document CHEMBL1177780, “Montmorillonite K-10 catalyzed cyclization of N-ethoxycarbonyl-N'-arylguanidines: access to pyrimido[4,5-c]carbazole and pyrimido[5,4-b]indole derivatives” (Bioorg Med Chem Lett, 2010)
Active and inactive are the calls of the source. The rule behind the calls is not given here.

What was measured:
[1] = target: T1, DNA topoisomerase 1 (Homo sapiens) (UniProt P11387); experiment: Inhibition of human topoisomerase 1-mediated relaxation of pUC18 DNA assessed as formation of nicked DNA up to 50 uM using ethidium bromide staining by agarose gel electrophoresis
T1 sequence (whole entry): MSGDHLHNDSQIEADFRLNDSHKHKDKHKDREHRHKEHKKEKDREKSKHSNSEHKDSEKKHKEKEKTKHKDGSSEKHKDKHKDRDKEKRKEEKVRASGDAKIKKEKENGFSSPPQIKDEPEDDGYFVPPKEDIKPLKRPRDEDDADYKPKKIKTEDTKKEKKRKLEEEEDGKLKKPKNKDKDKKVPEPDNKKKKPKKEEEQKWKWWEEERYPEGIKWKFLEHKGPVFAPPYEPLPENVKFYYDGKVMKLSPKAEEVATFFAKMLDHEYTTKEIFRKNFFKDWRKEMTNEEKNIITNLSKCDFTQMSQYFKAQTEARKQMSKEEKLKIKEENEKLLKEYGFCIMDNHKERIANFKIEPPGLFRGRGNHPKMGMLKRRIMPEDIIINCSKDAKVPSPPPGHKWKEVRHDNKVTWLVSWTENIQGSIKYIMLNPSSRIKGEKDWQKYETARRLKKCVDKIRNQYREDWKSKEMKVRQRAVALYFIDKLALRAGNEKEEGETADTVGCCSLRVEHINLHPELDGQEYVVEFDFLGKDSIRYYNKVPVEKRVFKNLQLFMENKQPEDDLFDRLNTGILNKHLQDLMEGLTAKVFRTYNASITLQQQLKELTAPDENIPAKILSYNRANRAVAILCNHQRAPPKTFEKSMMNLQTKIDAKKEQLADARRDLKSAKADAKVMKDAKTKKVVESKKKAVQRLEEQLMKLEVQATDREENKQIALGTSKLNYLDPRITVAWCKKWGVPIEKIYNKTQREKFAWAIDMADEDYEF

[2] = tested on: Calf thymus DNA; experiment: Binding affinity to calf thymus DNA assessed as change in melting temperature at 10 uM; assay type: nucleic-acid assay; conditions: Bos taurus
[3] = tested on: HL-60; experiment: Cytotoxicity against human topoisomerase 2-sensitive HL60 cells after 72 hrs by MTT assay; assay type: functional, cell-based; conditions: HL-60, 72 h
[4] = tested on: Nucleic Acid; experiment: Binding affinity to [poly(dAdT)]2 DNA assessed as change in melting temperature at 20 uM; assay type: nucleic-acid assay
[5] = Cytotoxicity against human HL60/MX2 cells after 72 hrs by MTT assay; assay type: functional, cell-based; conditions: HL60/MX2, 72 h
[6] = tested on: Calf thymus DNA; experiment: Binding affinity to calf thymus DNA assessed as change in melting temperature at 20 uM; assay type: nucleic-acid assay; conditions: Bos taurus
[7] = tested on: Nucleic Acid; experiment: Binding affinity to [poly(dAdT)]2 DNA assessed as change in melting temperature at 10 uM; assay type: nucleic-acid assay
[8] = target: DNA topoisomerase 2-alpha (Homo sapiens) (UniProt P11388); experiment: Inhibition of human topoisomerase 2-mediated relaxation of pUC18 DNA assessed as formation of nicked DNA at 50 uM using ethidium bromide staining by agarose gel electrophoresis
Sequence of DNA topoisomerase 2-alpha (Homo sapiens) (P11388 whole entry): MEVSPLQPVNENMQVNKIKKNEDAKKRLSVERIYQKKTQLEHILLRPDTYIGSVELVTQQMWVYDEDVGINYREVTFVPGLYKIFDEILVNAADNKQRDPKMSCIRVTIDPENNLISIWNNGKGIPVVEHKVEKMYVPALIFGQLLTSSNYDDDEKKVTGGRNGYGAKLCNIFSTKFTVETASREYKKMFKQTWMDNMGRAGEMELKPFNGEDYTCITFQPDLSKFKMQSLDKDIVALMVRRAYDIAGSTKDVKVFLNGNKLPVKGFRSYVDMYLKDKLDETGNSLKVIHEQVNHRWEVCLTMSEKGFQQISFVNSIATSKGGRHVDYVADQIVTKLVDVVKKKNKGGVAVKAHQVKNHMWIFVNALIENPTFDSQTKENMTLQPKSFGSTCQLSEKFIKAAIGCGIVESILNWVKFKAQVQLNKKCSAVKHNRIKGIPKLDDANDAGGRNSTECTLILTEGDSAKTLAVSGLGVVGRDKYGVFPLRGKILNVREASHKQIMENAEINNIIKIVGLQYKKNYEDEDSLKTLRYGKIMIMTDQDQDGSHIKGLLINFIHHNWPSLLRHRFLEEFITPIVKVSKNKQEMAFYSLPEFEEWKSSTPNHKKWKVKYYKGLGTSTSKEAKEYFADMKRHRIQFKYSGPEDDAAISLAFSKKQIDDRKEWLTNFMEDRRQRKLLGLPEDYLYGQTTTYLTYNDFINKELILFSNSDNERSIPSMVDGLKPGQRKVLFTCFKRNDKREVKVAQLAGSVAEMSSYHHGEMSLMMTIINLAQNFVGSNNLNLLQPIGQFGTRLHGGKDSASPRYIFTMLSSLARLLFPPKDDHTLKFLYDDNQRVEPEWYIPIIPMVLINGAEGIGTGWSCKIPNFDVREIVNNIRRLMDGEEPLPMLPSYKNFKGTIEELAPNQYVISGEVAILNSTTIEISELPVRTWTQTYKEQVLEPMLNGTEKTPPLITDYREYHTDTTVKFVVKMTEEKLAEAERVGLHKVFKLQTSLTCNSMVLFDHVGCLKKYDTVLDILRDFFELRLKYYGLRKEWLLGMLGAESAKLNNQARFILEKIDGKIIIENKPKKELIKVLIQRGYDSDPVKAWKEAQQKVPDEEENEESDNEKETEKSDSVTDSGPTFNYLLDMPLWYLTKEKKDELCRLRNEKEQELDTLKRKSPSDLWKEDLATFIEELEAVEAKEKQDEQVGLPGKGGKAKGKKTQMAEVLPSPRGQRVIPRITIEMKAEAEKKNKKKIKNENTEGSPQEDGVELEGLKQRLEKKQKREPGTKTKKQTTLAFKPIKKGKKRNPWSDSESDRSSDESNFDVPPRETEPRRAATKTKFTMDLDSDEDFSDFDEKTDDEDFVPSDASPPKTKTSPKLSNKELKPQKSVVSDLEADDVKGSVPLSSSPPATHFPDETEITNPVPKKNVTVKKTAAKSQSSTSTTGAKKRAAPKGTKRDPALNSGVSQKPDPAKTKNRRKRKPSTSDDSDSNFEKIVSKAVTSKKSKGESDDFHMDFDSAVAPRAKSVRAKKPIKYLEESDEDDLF

SMILES | inhibition [1] | ΔTm [2] [°C] | IC50 [3] [µM] | ΔTm [4] [°C] | IC50 [5] [µM] | ΔTm [6] [°C] | ΔTm [7] [°C] | inhibition [8] [%]
CCn1c2ccccc2c2c3c(=O)[nH]c(NCCN(C)C)nc3ccc21 | inactive | 3 | 17 | 15.4 | 17 | 2.3 | 15.9 | –
CN(C)CCNc1nc2c([nH]c3ccccc32)c(=O)[nH]1 | inactive | 0.4 | > 100 | 3 | > 100 | 0 | 4.4 | 10
COc1cc([C@@H]2c3cc4c(cc3[C@@H](O[C@@H]3O[C@@H]5CO[C@@H](C)O[C@H]5[C@H](O)[C@H]3O)[C@H]3COC(=O)[C@H]23)OCO4)cc(OC)c1O [ETOPOSIDE] | – | 0 | 1.3 | 0 | 11.9 | 0 | 0 | –
